Source: patent US20230390215A1 (AgoneX Biopharmaceuticals, Inc., priority 2021, published 2023)

What was measured:
[1] = system: subject suffering from Alzheimer's disease; conditions: Example 4: transdermal patch, 10 μg/mL, applied every day for two hours a day over a month
Protocol: A subject suffering from Alzheimer's disease is treated with a transdermal patch as described herein. […] The treatment regimen occurred over the course of a month.

[2] = system: subject suffering from migraine headaches
Protocol: The patch is applied to the subject's skin for 4 hours. […] The size of the patch can vary from ¼ inch by ¼ inch to 1 inch by 1 inch depending on the desired dosage to be administered.
A subject suffering from migraine headaches is administered a 2″×2″ patch with a gel concentration of 30 μg/ml over a 24 hour period.
A subject suffering from migraine headaches is administered a 2″×2″ patch with a gel concentration of 2.7 μg/ml over a 24 hour period.

Cl.Cl.NCCc1c[nH]cn1 [histamine dihydrochloride]
Alzheimer's disease symptoms [1]: treated or reduced | migraine events ([2]; Example 3: transdermal patch comprising 30 μg/mL, applied to skin for 4 hours during a migraine event): treated or reduced | migraine headaches (intensity and duration) ([2]; Example 6: 2″×2″ patch, gel concentration 2.7 μg/ml, 24 hour period): reduced in both intensity and duration
